Assay results taken from US20240398817A1, “CARDIO- AND RENOSAFE ANTIDIABETIC THERAPY” (priority 2018, published 2024).

Tested on: patients with type 2 diabetes at high vascular risk
Experiment: Cardiovascular and Renal Outcomes Trial: linagliptin 5 mg once daily vs placebo on top of standard of care
Assay type: in vivo
Conditions: for Hazard ratio for hospitalised heart failure: vs placebo
Protocol: The effect of linagliptin on cardiovascular risk in adult patients with type 2 diabetes mellitus and with increased CV risk evidenced by a history of established macrovascular or renal disease (e.g. as defined herein) was evaluated in a multi-center, multi-national, randomized, double-blind parallel group trial. The trial compared the risk of experiencing a major adverse cardiovascular event (MACE) between linagliptin and placebo when these were added to and used concomitantly with standard of care treatments for diabetes (HbA1c), cardiovascular risk factors and renal disease.
The primary endpoint in this trial was the time to first occurrence of three point (3P) MACE. A major adverse cardiac event was defined as a cardiovascular death or a nonfatal myocardial infarction (MI) or a nonfatal stroke. The statistical analysis plan tested for non-inferiority for the occurrence of (3P) MACE. […] The secondary endpoint was a renal composite, defined as renal death or sustained end stage renal disease or sustained decrease of 40% or more in eGFR.
Type 2 diabetes patient with insufficient glycemic control (naïve or pre-treated with any antidiabetic background medication, excluding treatment with GLP-1 receptor agonists, DPP-4inhibitors or SGLT-2 inhibitors if ≥consecutive 7 days, e.g. having HbA1c 6.5-10%), and high risk of cardiovascular events, e.g. defined by: • albuminuria (micro or macro) and previous macrovascular disease: e.g. defined according to Condition I as indicated below; • and/or • impaired renal function: e.g. as defined according to Condition II as indicated below;
Background and aims: People with type 2 diabetes (T2D) are at increased risk for hospitalization for heart failure (hHF), particularly in the setting of concomitant cardiovascular (CV) and/or kidney disease. […] Here we present analyses of HF outcomes with the DPP-4 inhibitor linagliptin (LINA) vs. placebo (PBO) from a Cardiovascular and Renal Outcomes Trial assessing cardiovascular safety and renal microvascular outcome in patients with type 2 diabetes at high vascular risk, a large CV outcomes trial that enrolled participants with T2D at high risk for hHF due to concomitant CV and/or chronic kidney disease. Materials and methods: People with T2D and concomitant CV and/or kidney disease were randomized to receive LINA 5 mg, or PBO once daily (1:1), on top of standard of care. All hHF, CV outcomes, and deaths were centrally adjudicated, with individual and composite HF-related outcomes analyses comparing LINA vs. placebo. Investigator-reported HF-related adverse events, whether or not confirmed by adjudication, were also analyzed. A Cox proportional hazards model adjusting for region and history of HF was used for analyses of first events. Recurrent hHF events were analyzed using a negative binomial model.
Methods: The present Cardiovascular and Renal Outcomes Trial randomized people with T2D and i) concomitant CV disease with UACR >30 mg/g or ii) prevalent CKD (i.e. GFR <45 ml/min/1.73m2 and/or UACR >200 mg/g) to receive the DPP-4 inhibitor linagliptin (5 mg) or placebo once daily in a double-blind fashion. The primary CV endpoint was 3P-MACE, with a key secondary kidney endpoint (adjudicated ESKD, renal death, or sustained ≥40% decrease in eGFR from baseline) and other renal outcomes (including albuminuria and eGFR slope) also assessed. Subgroups were assessed by baseline kidney function (eGFR ≥/<45 ml/min/1.73m2and eGFR ≥/<30, 45 or 60 ml/min/1.73m2).
Adults with type 2 diabetes, HbA1c 6.5-10.0% inclusive, and high CV risk were eligible for inclusion. […] Macrovascular disease eligibility criteria was based on documented and confirmed history of myocardial infarction, coronary artery disease, stroke, carotid artery disease, or peripheral artery disease. Participants with end-stage kidney disease (ESKD), defined as eGFR <15 or requiring maintenance dialysis, were excluded.

[1] = Metformin-dose: Not on metformin
[2] = Prevalent kidney disease (eGFR<60 mL/min/1.73 m^2 or macroalbuminuria UACR >300 mg/g) No
[3] = Prevalent kidney disease (eGFR<60 mL/min/1.73 m^2 or macroalbuminuria UACR >300 mg/g) Yes
[4] = Prevalent kidney disease (eGFR<60 or UACR >300 mg/g) No
[5] = Prevalent kidney disease (eGFR<60 or UACR >300 mg/g) Yes

SMILES: CC#CCn1c(N2CCC[C@@H](N)C2)nc2c1c(=O)n(Cc1nc(C)c3ccccc3n1)c(=O)n2C [Linagliptin, 1-[(4-methyl-quinazolin-2-yl)methyl]-3-methyl-7-(2-butyn-1-yl)-8-(3-(R)-amino-piperidin-1-yl)-xanthine]
- Hazard ratio for hospitalised heart failure (History of heart failure Yes): 0.88
- 3-point MACE: hazard ratio vs placebo (Insulin No): 0.88
- 3-point MACE: patients with event/patients analyzed (Insulin No): 139/1487
- Key secondary kidney outcome: hazard ratio vs placebo (Insulin No): 1.08
- Key secondary kidney outcome: patients with event/patients analyzed (Insulin No): 101/1487
- Patients with event/patients analysed, hospitalised heart failure (Insulin No): 40/1487
- Hazard ratio for hospitalised heart failure (Insulin No): 0.62
- 3-point MACE: hazard ratio vs placebo (Insulin Yes): 1.10
- 3-point MACE: patients with event/patients analyzed (Insulin Yes): 295/2007
- Key secondary kidney outcome: hazard ratio vs placebo (Insulin Yes): 1.01
- Key secondary kidney outcome: patients with event/patients analyzed (Insulin Yes): 226/2007
- Patients with event/patients analysed, hospitalised heart failure (Insulin Yes): 169/2007
- Hazard ratio for hospitalised heart failure (Insulin Yes): 1.00
- Patients with event/patients analysed, hospitalised heart failure (Ischemic heart disease No): 66/1465
- Hazard ratio for hospitalised heart failure (Ischemic heart disease No): 1.04
- Patients with event/patients analysed, hospitalised heart failure (Ischemic heart disease Yes): 143/2029
- Hazard ratio for hospitalised heart failure (Ischemic heart disease Yes): 0.85
- 3-point MACE: hazard ratio vs placebo (Lipid lowering drugs No): 0.90
- 3-point MACE: patients with event/patients analyzed (Lipid lowering drugs No): 95/871
- Key secondary kidney outcome: hazard ratio vs placebo (Lipid lowering drugs No): 1.13
- Key secondary kidney outcome: patients with event/patients analyzed (Lipid lowering drugs No): 101/871
- Patients with event/patients analysed, hospitalised heart failure (Lipid lowering drugs No): 34/871
- Hazard ratio for hospitalised heart failure (Lipid lowering drugs No): 1.01
- 3-point MACE: hazard ratio vs placebo (Lipid lowering drugs Yes): 1.06
- 3-point MACE: patients with event/patients analyzed (Lipid lowering drugs Yes): 339/2623
- Key secondary kidney outcome: hazard ratio vs placebo (Lipid lowering drugs Yes): 1.00
- Key secondary kidney outcome: patients with event/patients analyzed (Lipid lowering drugs Yes): 226/2623
- Patients with event/patients analysed, hospitalised heart failure (Lipid lowering drugs Yes): 175/2623
- Hazard ratio for hospitalised heart failure (Lipid lowering drugs Yes): 0.88
- Patients with event/patients analysed, hospitalised heart failure (Loop diuretics No): 80/2530
- Hazard ratio for hospitalised heart failure (Loop diuretics No): 0.97
- Patients with event/patients analysed, hospitalised heart failure (Loop diuretics Yes): 129/964
- Hazard ratio for hospitalised heart failure (Loop diuretics Yes): 0.90
- 3-point MACE: hazard ratio vs placebo (Metformin No): 1.02
- 3-point MACE: patients with event/patients analyzed (Metformin No): 242/1613
- Key secondary kidney outcome: hazard ratio vs placebo (Metformin No): 0.99
- Key secondary kidney outcome: patients with event/patients analyzed (Metformin No): 212/1613
- Patients with event/patients analysed, hospitalised heart failure (Metformin No): 138/1613
- Hazard ratio for hospitalised heart failure (Metformin No): 0.97
- 3-point MACE: hazard ratio vs placebo (Metformin Yes): 1.02
- 3-point MACE: patients with event/patients analyzed (Metformin Yes): 192/1881
- Key secondary kidney outcome: hazard ratio vs placebo (Metformin Yes): 1.11
- Key secondary kidney outcome: patients with event/patients analyzed (Metformin Yes): 115/1881
- Patients with event/patients analysed, hospitalised heart failure (Metformin Yes): 71/1881
- Hazard ratio for hospitalised heart failure (Metformin Yes): 0.79
- 3-point MACE: hazard ratio vs placebo (Metformin-dose >1500 mg): 1.02
- 3-point MACE: patients with event/patients analyzed (Metformin-dose >1500 mg): 111/1094
- Key secondary kidney outcome: hazard ratio vs placebo (Metformin-dose >1500 mg): 0.99
- Key secondary kidney outcome: patients with event/patients analyzed (Metformin-dose >1500 mg): 62/1094
- Patients with event/patients analysed, hospitalised heart failure (Metformin-dose >1500 mg): 49/1094
- Hazard ratio for hospitalised heart failure (Metformin-dose >1500 mg): 0.88
- 3-point MACE: hazard ratio vs placebo (Metformin-dose ≤1500 mg): 1.02
- 3-point MACE: patients with event/patients analyzed (Metformin-dose ≤1500 mg): 81/787
- Key secondary kidney outcome: hazard ratio vs placebo (Metformin-dose ≤1500 mg): 1.29
- Key secondary kidney outcome: patients with event/patients analyzed (Metformin-dose ≤1500 mg): 53/787
- Patients with event/patients analysed, hospitalised heart failure (Metformin-dose ≤1500 mg): 22/787
- Hazard ratio for hospitalised heart failure (Metformin-dose ≤1500 mg): 0.65
- 3-point MACE: hazard ratio vs placebo [1]: 1.02
- 3-point MACE: patients with event/patients analyzed [1]: 242/1613
- Key secondary kidney outcome: hazard ratio vs placebo [1]: 0.99
- Key secondary kidney outcome: patients with event/patients analyzed [1]: 212/1613
- Patients with event/patients analysed, hospitalised heart failure [1]: 138/1613
- Hazard ratio for hospitalised heart failure [1]: 0.97
- Patients with event/patients analysed, hospitalised heart failure [2]: 18/887
- Hazard ratio for hospitalised heart failure [2]: 0.69
- Patients with event/patients analysed, hospitalised heart failure [3]: 191/2606
- Hazard ratio for hospitalised heart failure [3]: 0.91
- 3-point MACE: hazard ratio vs placebo [4]: 0.88
- 3-point MACE: patients with event/patients analyzed [4]: 60/887
- Key secondary kidney outcome: hazard ratio vs placebo [4]: 1.36
- Key secondary kidney outcome: patients with event/patients analyzed [4]: 19/887
- 3-point MACE: hazard ratio vs placebo [5]: 1.04
- 3-point MACE: patients with event/patients analyzed [5]: 374/2606
- Key secondary kidney outcome: hazard ratio vs placebo [5]: 0.99
- Key secondary kidney outcome: patients with event/patients analyzed [5]: 308/2606
- 3-point MACE: hazard ratio vs placebo (Race Asian): 1.09
- 3-point MACE: patients with event/patients analyzed (Race Asian): 40/307
- Key secondary kidney outcome: hazard ratio vs placebo (Race Asian): 0.90
- Key secondary kidney outcome: patients with event/patients analyzed (Race Asian): 32/307
- Patients with event/patients analysed, hospitalised heart failure (Race Asian): 14/307
- 3-point MACE: hazard ratio vs placebo (Race Black/African-American): 1.30
- 3-point MACE: patients with event/patients analyzed (Race Black/African-American): 31/194
- Key secondary kidney outcome: hazard ratio vs placebo (Race Black/African-American): 1.31
- Key secondary kidney outcome: patients with event/patients analyzed (Race Black/African-American): 35/194
- Patients with event/patients analysed, hospitalised heart failure (Race Black/African-American): 15/194
